Assay results published in paper PMC4738272 (Scientific Reports, 2016).
“And” between values parts separate entries of the source, which are not always exact repeats. Identical values can stand only once. “Also recorded” adds a separate entry of the source. Like-named read-outs stand apart in the source and are kept apart here.

Legend:
HepG2/C3A [1] = assay: Urea quantification, liver fraction of 4-organ system; type: cell-based, human; settings: 4-organ co-culture under flow, 48 h drug treatment, vs control; DOX 5 μM, ATR 100 μM, APAP 5 mM, AMAP 5 mM
Cardiomyocytes = tested on: Cardiomyocytes; parameters: method as in Literature; settings: general toxic effects reported in the literature; ref Literature; cited from earlier work
[2] = cited from earlier work; for Toxic plasma concentration: humans
neurons [3] = assay: Neuronal viability by morphological analysis and cell count in 4-organ system; settings: 4-organ co-culture under flow, serum-free medium, 48 h drug treatment, day 7, vs control, DOX 5 μM, ATR 100 μM, VPA 2 mM, APAP 5 mM, AMAP 5 mM
Source text: (§1) The four organ in vitro systems were assembled, on day 0, by placing the corresponding surfaces cell side up in a specific chamber of the housing (liver coverslip into chamber 1, cardiac coverslips and cantilevers into chambers 2 and 4, muscle coverslips into chamber 5, and neuron coverslips into chamber 3 and they were then topped with the serum-free co-culture medium (1X Neurobasal Medium, 1X B27, 1X AB/AM, 1X Glutamax (all from Life Technologies)) before locking the system. Right after assembling, the medium was completely replaced with 4 mL of the co-culture defined serum-free medium and the systems placed on a rocking platform inside an incubator. Platforms were checked every day by inspecting for expected cell morphology inside the system and by replacing medium (1.2 mL total volume) from the two reservoirs (30% of the total volume was replaced) with fresh medium. Drug incubation was initiated on day 5 of the co-culture by addition of the drug through the reservoir closer to the liver chamber (no. 1), allowing a first contact of the drug with the liver. 20 μL of the drug stock solution (or vehicle) to achieve a working concentration in 4 mL of total volume in the platform was utilized. On day 6, after 24 hours of drug incubation, 6 μL of the drug stock solution (or vehicle) was added to the fresh medium exchange volume (1.2 mL). After 48 hour of drug incubation, on day 7, systems were disassembled to test organ functionality that same day. For mono-culture conditions, surfaces remained in a 12-well plated with 1 mL of the co-culture defined serum-free medium maintained by daily replacement of half volume.
(§2) Seven days after the initiation of the co-culture, viability of each organ chamber, except for neurons, was evaluated through an MTT assay. […] Cell viability was measured at 570 nm in a Synergy HT plate reader and KC4 software. The results were expressed as the percentage of cell survival relative to the control (untreated or incubated with vehicle). The neuronal fraction viability was evaluated through morphological analysis throughout the co-culture experiment as the final coverslips were used for patch-clamp electrophysiology. Phase images (10X) where obtained every day of the co-culture. Neuronal viability was evaluated by cell morphology integrity and by cell count from day 1 to day 14.

Human Skeletal Myofibers [4] = assay: MTT viability of skeletal muscle module in 4-organ system; settings: 4-organ co-culture under flow, serum-free medium, 48 h drug treatment, day 7, vs control, DOX 5 μM, ATR 100 μM, VPA 2 mM, APAP 5 mM, AMAP 5 mM
Source text: as §1, §2

Muscle = tested on: Muscle; parameters: method as in Literature; settings: general toxic effects reported in the literature; ref Literature; cited from earlier work
[5] = tested on: iPSc differentiated Cardiomyocytes; assay: MTT viability of cardiac module in 4-organ system; settings: 4-organ co-culture under flow, serum-free medium, 48 h drug treatment, day 7, vs control, DOX 5 μM, ATR 100 μM, VPA 2 mM, APAP 5 mM, AMAP 5 mM
Source text: as §1, §2

Neurons [6] = tested on: Neurons; parameters: method as in Literature; settings: general toxic effects reported in the literature; ref Literature; cited from earlier work
neurons [7] = assay: Neuron electrophysiology recording (patch clamp); type: cell-based, human; settings: 4-organ co-culture under flow, 48 h drug treatment, day 7, vs control, DOX 5 μM, ATR 100 μM; for Neuronal ion currents and firing of stimulated action potentials / Neuronal repetitive and spontaneous firing ability / Neuronal electrophysiology, overall effect: APAP 5 mM; for Neuronal repetitive and spontaneous firing ability / Neuronal electrophysiology, overall effect: AMAP 5 mM; for Neuronal electrophysiology, overall effect: VPA 2 mM
Source text: Electrophysiological properties of neuron cultures where recorded on the last day of co-culture following a previously described method. Values of firing, repetitive firing, spontaneous firing, inward sodium current, outward potassium current, action potential peak voltage and the resting membrane potential, characterized the mature functionality of neurons in the in vitro system. Drug alterations of the neuronal electrophysiology are discussed in this manuscript.

Human Skeletal Myofibers [8] = assay: Myotube stimulated contraction (binary: contracting or not); type: cell-based; settings: 4-organ co-culture under flow, 48 h drug treatment, day 7, broad-field electrical stimulation, DOX 5 μM, ATR 100 μM, VPA 2 mM, APAP 5 mM, AMAP 5 mM
Method: Myotube contraction in coverslips was evaluated after the co-culture was finalized. Individual surfaces were evaluated as previously reported in the group. Drugs effects were quantify in a binary code mode, cells were or were not contracting.

[9] = tested on: iPSc differentiated Cardiomyocytes; assay: Cardiac beating frequency from video recordings; type: cell-based, human; settings: 4-organ co-culture under flow, 48 h drug treatment, day 7, vs control, ATR 100 μM, VPA 2 mM, APAP 5 mM
Method: Seven or fourteen days after the co-culture, cardiac beating frequency was quantified from video recordings of three different areas of each of the cMEA surfaces, where the cardiomyocytes culture where located. Surfaces were located in a 37 °C bath platform containing co-culture medium with 50 mM HEPES on the stage of a Zeiss Axioscope 2FS upright microscope. Beats were counted in a period of 10 s, and the average number of 3 values was obtained. Drug effect was plotted as percentage of change compared to the control conditions.

HepG2/C3A [10] = assay: Human Serum Albumin quantification (ELISA), liver fraction of 4-organ system; type: cell-based; settings: 4-organ co-culture under flow, 48 h drug treatment, vs control, DOX 5 μM, ATR 100 μM, VPA 2 mM, APAP 5 mM, AMAP 5 mM
Method: Human Serum Albumin (HSA) production from the liver fraction was tracked throughout the co-culture, by measuring the HSA concentration in the supernatant of the culture as it represents liver protein anabolism. Samples were collected from the exchanged medium (1.2 mL) and stored at −20 °C until analysis. One freeze-thaw cycle occurred before samples were analyzed following manufacturers’ instructions provided in the ELISA Starter Accessory Kit (Bethyl Laboratories Inc, Cat #: E101). Samples were diluted as necessary in sample conjugate/diluent buffer to ensure readings measured within the range of the standard curve. The standard curve was prepared by serial dilutions of human reference serum in sample conjugate/diluent buffer (0–1600 ng/ml).
Final HSA concentrations were calculated in an excel file by first removing the average OD reading measured for blanks from average sample and standard OD readings. Concentrations of standard dilutions were plotted against average OD values measured in XY scatter plots. A standard curve was created by adding an order of 2 polynomial trendline to XY scatter plots and selecting the option to display the equation of the trendline, as well as the R^2 value, on each scatter plot (for ease of analysis HSA sigmoidal curves were split into 3 standard curves with HSA concentration ranges of 0–200 ng/ml, 200–800 ng/ml and […]). Quadratic equations were rearranged to make X (sample HSA concentration) the unknown variant. Y values (OD values) and a/b/c constants generated from trendline equations were inputted into rearranged quadratic equations per assay. HSA concentrations calculated were corrected accordingly for any differences in culture final volumes, sample dilutions during assays and cells number.

Liver = tested on: Liver; parameters: method as in Literature; settings: general toxic effects reported in the literature; ref Literature; cited from earlier work
HepG2 = tested on: HepG2; parameters: method as in PMID 19107278; settings: microfluidic system, double the concentration of APAP of this manuscript; cited from earlier work
CYP3A4 = assay: Cytochrome p450 3A4 enzymatic activity in liver mono-culture; type: cell-based, human; settings: ATR 100 μM, 48 hour incubation, data not shown
Method: Enzymatic products from 1A1 were run with LDR, and separately, 3A4 were run with LDR containing esterases. Enzymatic activities were finally represented as D-Luciferin picomoles produce in 1 hour by 1 × 10^6 cells.

| SMILES | Drug effects on cell functionality, Cardiomyocytes, Literature (Cardiomyocytes) | Drug effects on cell viability, Cardiomyocytes, Literature (Cardiomyocytes) | Neuronal cell viability, loss (cell loss by morphology/cell count) (neurons [3]) | Skeletal muscle viability, loss (Human Skeletal Myofibers [4]) | Drug effects on cell functionality, Muscle, Literature (Muscle) | Drug effects on cell viability, Muscle, Literature (Muscle) | Cardiomyocyte viability, loss [5] | Drug effects on cell functionality, Neurons, Literature (Neurons [6]) | Drug effects on cell viability, Neurons, Literature (Neurons [6]) | Neuronal electrophysiology, overall effect (neurons [7]) | Skeletal muscle loss of contractile ability (share of cultures in which contraction ceased) (Human Skeletal Myofibers [8]) | Cardiomyocyte beating rate (beat frequency), increase [9] | HSA (albumin) production, increase (HepG2/C3A [10]) | Drug effects on cell functionality, Liver, Literature (Liver) | Drug effects on cell viability, Liver, Literature (Liver) | further results |
| --- | --- | --- | --- | --- | --- | --- | --- | --- | --- | --- | --- | --- | --- | --- | --- | --- |
| CC(=O)Nc1ccc(O)cc1 [Acetaminophen] | Cardio-protective effect | Cardio-protective effect | 50 ± 18% loss of cell viability | Toxicity not observed | Myo-protective effect | Myo-protective effect | Toxicity not observed | Toxicity not reported | Toxicity not reported | Electrophysiology affected | 37% loss of contractile ability | 27 ± 9% increase in beating frequency | not affected | Compromised | Toxicity reported | Urea production, increase (HepG2/C3A [1]): 52 ± 13%; Therapeutic, and safe, plasma concentration ([2]; 500–1000 mg orally three times a day): low micromolar range; Toxic plasma concentration ([2]; after 24 hours): less than 50 μM; Toxic plasma concentration ([2]; first two hours after ingestion): around 2 mM; Skeletal muscle viability, loss (Human Skeletal Myofibers [4]; listed as APAP): not significantly affected; Cardiomyocyte viability, loss ([5]; listed as APAP): not significantly affected; also recorded: preserved (even improved); Neuronal ion currents and firing of stimulated action potentials (neurons [7]): no changes; Neuronal repetitive and spontaneous firing ability (neurons [7]): loss and lost; Skeletal muscle loss of contractile ability (share of cultures in which contraction ceased) (Human Skeletal Myofibers [8]; listed as APAP): 37%; Reduction in HepG2 viability (HepG2): 60% |
| CC(C)c1c(C(=O)Nc2ccccc2)c(-c2ccccc2)c(-c2ccc(F)cc2)n1CC[C@@H](O)C[C@@H](O)CC(=O)O [Atorvastatin] | Cardio-protective effect | Cardio-protective effect | 47 ± 14% loss of cell viability | 30 ± 15% loss | Compromised | Toxicity reported | No toxic effect observed | Toxic at higher concentration( ^**) | Toxic at higher concentration( ^**) | Electrophysiology affected | 50% loss of contractile ability | 43 ± 16% increase in beating rate | not affected | May be compromised | Toxicity reported | Neuronal cell viability, loss (cell loss by morphology/cell count) (neurons [3]; listed as ATR): 47 ± 14% and 47 ± 16%; Skeletal muscle viability, loss (Human Skeletal Myofibers [4]; listed as ATR): 30 ± 15%; Cardiomyocyte viability, loss ([5]; listed as ATR): no reduction; Neuronal action potential peak voltage and resting membrane potential (DOX also peak ionic currents) (neurons [7]): changes; Neuronal repetitive and spontaneous firing ability (neurons [7]; listed as ATR): altered ability; also recorded: no repetitively firing cells were observed; Neuronal ion currents and firing of stimulated action potentials (neurons [7]; listed as ATR): typical ion currents and stimulated firing APs; also recorded: regular AP activity was recorded with good sodium and potassium currents; Skeletal muscle loss of contractile ability (share of cultures in which contraction ceased) (Human Skeletal Myofibers [8]; listed as ATR): 50%; CYP3A4 activity induction (CYP3A4): 12 fold; Cardiomyocyte beating rate (beat frequency), increase ([9]; listed as ATR): 43 ± 16%; HSA (albumin) production, increase (HepG2/C3A [10]; listed as ATR): no change |
